Experiments:
[1] = target: T1, human tissue antigen 0201 (HLA-A0201) (Homo sapiens, UniProt P04439, D140Y/D185E/D98H/E176V/E277Q/G131W/G231S/I119V/I121R/I166T/I218V/L300P/L318F/N151K/N90K/P208A/P217A/Q86G/Q94H/R138H/R169H/T345S); assay type: cell-based
T1 construct: T2 cell line is a cell line lacking of the transporters associated with antigen processing (TAP), TAP1 and TAP2; endogenous in cells; host or cells: T2 cell line (TAP1/TAP2-deficient)

[2] = tested on: spleen lymphocytes expressing simultaneously CD8+ and IFN-γ+; design: species or system C57BL/6 mice transgenic for human tissue antigen 0201; conditions: in vivo

Sequence	binding to human tissue antigen 0201 on T2 cells (HLA-A2 expression, median fluorescence intensity) [1]	relative binding ability among peptides S1-S10 in the T2 cell binding test [1]	induction of antigen-specific cytotoxicity (lymphocytes expressing simultaneously CD8+ and IFN-γ+) [2]	induction of cytotoxicity by vaccine containing peptide (proportion of spleen lymphocytes expressing CD8+ and IFN-γ+) [2]
ILPDPLKPT [S6]	could bind to the human tissue antigen 0201	strongest binding ability	could induce cytotoxicity	could induce cytotoxicity
NLNESLIDL [S1]	could bind to the human tissue antigen 0201			
VLNDILSRL [S4]	could bind to the human tissue antigen 0201			
VLYENQKQI [S5]	could bind to the human tissue antigen 0201			
VVFLHVTYV [S2]	could bind to the human tissue antigen 0201	strongest binding ability	could induce cytotoxicity	could induce cytotoxicity
